The target of one assay is gp-340 (Homo sapiens, UniProt Q9UGM3). The following applies: previously shown/demonstrated; cited from earlier work.
The test system of another assay is HIV strain BL2. Kind of assay: Trans-infection assay, AGS cells expressing endogenous gp-340 to T cell blasts. The class given is cell-based, HIV-1. To be noted: peptide 10 μg/ml, 15 min preincubation, p24 7 days later. The method, then:
FIG. 2 Transmission of HIV by AGS cells expressing endogenous gp-340 is inhibited by peptide corresponding to the V3 domain of Env. AGS cells were preincubated with gp-340-specific peptide 6283 or 6284, and control peptide 6220 (10 μg/ml) for 15 min and then pulsed with decreasing amounts of HIV strain BL2. After viral exposure, the cells were washed four times to remove unbound virus and cocultured with T cell blasts in the absence of peptides for 24 h. The T cell blasts were then moved to new wells and p24 Gag antigen content was measured 7 days later. IUs were calculated using PHA-blasts as target cells in a TCID50 assay. Experiment was performed in replicates of six per virus concentration. Data is expressed as the percentage of the 6 wells in which the cells became infected for each virus concentration.
(§1) Parental or gp-340 expressing 293 cells, VK2E6E7, Endo1E6E7, Ect1E6E7, or AGS cells or 1 mm^3 pieces of ectocervix obtained as described below seeded in 96 well plates were incubated with various IU inputs of HIV, in 100 μl final volume for 2 h at 37° C. and then extensively washed. Additional inhibitors, peptides or antibodies, were added to cells 30 min prior to pulsing with virus and replaced after cells were washed. Plates were centrifuged at 1250 rpm for 7 minutes between each wash. After viral incubation and washing, PHA-blasts were cocultured with the pulsed cells for 7 days at 37° C. with IL-2. Infection was monitored by measuring supernatant-associated p24 Gag protein content on day 7. TCID50 was calculated using the Reed-Münch formula.
To examine native expressed gp-340, the gastrointestinal carcinoma cell line AGS, which is expresses gp-340, was analyzed for its ability to transmit HIV in vitro. AGS cells enhanced transmission of HIV to target CD4^+ T cells. Cells were infected in 50% of the wells when 0.08 infectious units (IU) of virus were pulsed per well. This represented a 6-fold enhancement in the viral infectivity by gp-340. Peptides 6283 and 6284, derived from the proposed gp-340 binding site in Env, abolished the enhancement in infectivity. […]

For assay [1], the system named is HIV. Kind of assay: Direct HIV infection of PHA-blasts with peptide added before HIV. The class given is cell-based, HIV-1. To be noted: peptide added to PHA-blasts prior to HIV.
Assay [2] has as its system HIV (primary M-tropic strain BL2). Kind of assay: Trans-infection assay, 293 clone 1D4 stably expressing gp-340 pulsed with HIV, cocultured with PHA-blasts. The class given is cell-based, HIV-1. To be noted: for mean P24, transmission by clone 1D4 in presence of peptide: average of 6 wells. On the procedure:
FIG. 1. 293 cells stably expressing cell surface gp-340 enhance the transfer of HIV to target cells. (A) 293 cells and a clone, 1D4, stably expressing gp-340, were stained for surface expression of gp-340 using rabbit polyclonal antibody 1527. Isotype control stained cells shown are 293 cells, but the 1D4 clone gave the same pattern. (B) Clone 1D4 and 293 cells were pulsed with increasing IU of HIV BL2 virus with or without a V3-derived peptide 6284 (10 μg/ml) that blocks Env-gp-340 binding, washed and exposed to PHA-blasts for 7 days. IUs were calculated using PHA-blasts as target cells in a TCID50 assay. Experiment was performed in replicates of 6 wells per viral addition and data is expressed as the percentage of the wells that became infected.
as §1, with “After viral incubation and washing, PHA-blasts were cocultured with the pulsed cells for 7 days at 37° C. with IL-2.” left out
Secreted gp-340 found at high levels in the oral cavity and also exists in a cell surface-associated form, although mRNA containing exon 55, which encodes the putative transmembrane domain, has not yet been detected. […] The gp-340 expressing cell lines were measured for their ability to transmit cell-free HIV to human PHA- and IL-2-stimulated PBMCs (PHA-blasts). […] Infection was monitored by p24 Gag protein content in the culture supernatant in each well and scored for the presence or absence of infection. The assay used 6 replicates of cells for each viral dilution and condition and calculated the number of wells that became infected at each amount of added virus. […]

In a further assay the test system is HIV-1 BL2 virus. Kind of assay: Trans-infection assay, vaginal epithelial cells (VK2E6E7) to PHA-blasts. The following applies: pre-incubation with antibody, or peptide at time of viral pulsing; p24 after 7 days. The class given is cell-based. On the procedure:
Vaginal epithelial cells (VK2E6E7) were incubated with isotype control or gp-340-specific antibodies 116 or DAPA and then pulsed with HIV-1 BL2 virus. After extensive washing, PHA-blasts were added for 24 h and then moved to new plates without VK2E6E7 cells. After 7 days, p24 Gag protein content in the supernatant was measured. Samples were run in triplicate and standard error of the mean is given.
as §1
Cell lines were pulsed with decreasing amounts of HIV Ba-L, washed and had target cells immediately added or added after 2 or 4 days of culture. […]

The test system of assay [3] is HIV. Kind of assay: Trans-infection by genital tract epithelial cell lines. To be noted: treatment completely removes syndecan expression. The class given is cell-based.

Sequence of gp-340 (Q9UGM3 20-2413): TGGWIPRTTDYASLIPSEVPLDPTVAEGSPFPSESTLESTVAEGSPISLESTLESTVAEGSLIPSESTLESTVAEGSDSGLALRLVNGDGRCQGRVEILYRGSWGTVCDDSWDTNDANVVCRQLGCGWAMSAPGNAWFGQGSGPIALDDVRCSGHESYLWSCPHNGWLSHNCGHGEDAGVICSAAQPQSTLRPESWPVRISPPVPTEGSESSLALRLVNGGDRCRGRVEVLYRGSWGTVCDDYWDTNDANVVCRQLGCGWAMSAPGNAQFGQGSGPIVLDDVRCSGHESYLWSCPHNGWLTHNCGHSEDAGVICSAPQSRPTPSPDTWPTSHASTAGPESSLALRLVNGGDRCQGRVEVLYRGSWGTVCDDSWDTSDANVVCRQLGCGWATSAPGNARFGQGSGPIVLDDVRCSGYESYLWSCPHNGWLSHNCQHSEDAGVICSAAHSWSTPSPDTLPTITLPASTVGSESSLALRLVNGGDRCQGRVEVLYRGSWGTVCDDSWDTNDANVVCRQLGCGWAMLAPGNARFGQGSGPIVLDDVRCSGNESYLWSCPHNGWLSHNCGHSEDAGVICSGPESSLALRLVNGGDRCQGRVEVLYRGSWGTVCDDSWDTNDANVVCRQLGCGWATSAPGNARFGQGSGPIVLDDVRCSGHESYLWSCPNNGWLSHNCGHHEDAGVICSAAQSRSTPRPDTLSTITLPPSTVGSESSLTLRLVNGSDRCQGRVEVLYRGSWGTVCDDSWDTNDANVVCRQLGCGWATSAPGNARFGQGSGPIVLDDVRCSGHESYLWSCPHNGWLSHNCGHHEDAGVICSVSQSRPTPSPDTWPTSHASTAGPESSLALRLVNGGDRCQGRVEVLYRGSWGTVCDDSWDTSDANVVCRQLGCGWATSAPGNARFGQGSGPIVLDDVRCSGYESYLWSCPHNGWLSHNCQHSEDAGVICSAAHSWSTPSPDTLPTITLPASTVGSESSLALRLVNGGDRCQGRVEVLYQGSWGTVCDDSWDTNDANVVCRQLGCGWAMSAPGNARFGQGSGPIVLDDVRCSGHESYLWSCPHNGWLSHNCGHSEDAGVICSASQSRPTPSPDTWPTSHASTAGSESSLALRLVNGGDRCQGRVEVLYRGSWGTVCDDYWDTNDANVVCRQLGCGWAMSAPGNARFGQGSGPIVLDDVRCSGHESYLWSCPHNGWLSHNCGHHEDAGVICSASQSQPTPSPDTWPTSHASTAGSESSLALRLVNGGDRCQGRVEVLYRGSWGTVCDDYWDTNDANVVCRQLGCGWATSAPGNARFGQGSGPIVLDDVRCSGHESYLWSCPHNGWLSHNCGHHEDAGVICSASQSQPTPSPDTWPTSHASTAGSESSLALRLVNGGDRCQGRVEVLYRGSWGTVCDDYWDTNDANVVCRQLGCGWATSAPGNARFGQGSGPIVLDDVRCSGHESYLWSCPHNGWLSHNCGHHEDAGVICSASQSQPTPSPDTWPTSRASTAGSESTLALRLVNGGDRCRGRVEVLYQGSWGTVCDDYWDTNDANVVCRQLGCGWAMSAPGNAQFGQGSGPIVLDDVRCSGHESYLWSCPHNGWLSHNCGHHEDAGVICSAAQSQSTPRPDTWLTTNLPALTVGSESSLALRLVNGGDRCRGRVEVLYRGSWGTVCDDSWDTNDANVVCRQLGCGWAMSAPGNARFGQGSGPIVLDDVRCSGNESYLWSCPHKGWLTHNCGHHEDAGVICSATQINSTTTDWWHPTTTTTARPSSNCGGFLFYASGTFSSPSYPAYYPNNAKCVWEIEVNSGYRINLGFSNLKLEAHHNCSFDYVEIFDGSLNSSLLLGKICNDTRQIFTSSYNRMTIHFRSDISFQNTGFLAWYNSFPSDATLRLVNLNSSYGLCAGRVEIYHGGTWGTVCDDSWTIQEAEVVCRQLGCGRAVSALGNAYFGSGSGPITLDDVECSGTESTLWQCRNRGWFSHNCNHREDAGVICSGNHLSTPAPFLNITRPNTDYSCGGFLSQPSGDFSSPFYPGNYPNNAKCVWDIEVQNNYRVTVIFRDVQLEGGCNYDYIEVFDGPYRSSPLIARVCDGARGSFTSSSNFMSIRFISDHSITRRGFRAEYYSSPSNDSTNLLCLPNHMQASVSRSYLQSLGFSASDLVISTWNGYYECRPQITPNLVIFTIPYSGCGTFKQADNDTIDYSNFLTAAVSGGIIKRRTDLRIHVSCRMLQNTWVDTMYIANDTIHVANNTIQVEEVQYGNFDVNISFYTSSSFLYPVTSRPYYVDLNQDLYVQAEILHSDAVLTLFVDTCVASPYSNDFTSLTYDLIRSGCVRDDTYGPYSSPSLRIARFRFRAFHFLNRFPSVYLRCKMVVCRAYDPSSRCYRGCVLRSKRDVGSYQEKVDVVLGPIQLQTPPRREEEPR

In the case of CTRPNYNKRKRIHIG [peptide 6284], the “Env binding to gp-340” value with gp-340 is “block”. The “enhancement in infectivity (transmission of HIV by AGS cells)” value with HIV strain BL2 is listed as “abolished”. Moreover, the “infection of PHA-blasts” value with HIV [1] is “did not affect”. The “mean P24, transmission by clone 1D4 in presence of peptide” value in assay [2] (0.11 IU viral input, without peptide 184) stood at 7; in assay [2] (0.33 IU viral input, without peptide 239), 7. In assay [2] (gp-340-expressing 293 cells pre-incubated with peptide 10 μg/ml, HIV BL2, PHA-blasts 7 days), the “enhancement of HIV trans-infection (TCID50) by gp-340-expressing cells” value is listed as “abolished”.
On to DAPA, for which, at gp-340, the “Env binding to gp-340” value is given as “inhibit”. In addition, the “ability of VK2E6E7 cells to bind and transmit HIV to PHA-blasts” value in the assay on HIV-1 BL2 virus is given as “markedly decreased”.
In the case of VQINCTRPNYNKRKR [peptide 6283], the “enhancement in infectivity (transmission of HIV by AGS cells)” value with HIV strain BL2 is “abolished”.
The same measure, in the same setting: the value for “KEATTTLFCASDAKA (Human) [peptide 6220, control peptide derived from another part of Env, reference compound]” was “had no impact”.

B1: heparinase: enzyme treatment that completely removes syndecan expression (protein, UniProt Q59289 25-659, looked up)
Heparin-sulfate lyase: QSSSITRKDFDHINLEYSGLEKVNKAVAAGNYDDAAKALLAYYREKSKAREPDFSNAEKPADIRQPIDKVTREMADKALVHQFQPHKGYGYFDYGKDINWQMWPVKDNEVRWQLHRVKWWQAMALVYHATGDEKYAREWVYQYSDWARKNPLGLSQDNDKFVWRPLEVSDRVQSLPPTFSLFVNSPAFTPAFLMEFLNSYHQQADYLSTHYAEQGNHRLFEAQRNLFAGVSFPEFKDSPRWRQTGISVLNTEIKKQVYADGMQFELSPIYHVAAIDIFLKAYGSAKRVNLEKEFPQSYVQTVENMIMALISISLPDYNTPMFGDSWITDKNFRMAQFASWARVFPANQAIKYFATDGKQGKAPNFLSKALSNAGFYTFRSGWDKNATVMVLKASPPGEFHAQPDNGTFELFIKGRNFTPDAGVFVYSGDEAIMKLRNWYRQTRIHSTLTLDNQNMVITKARQNKWETGNNLDVLTYTNPSYPNLDHQRSVLFINKKYFLVIDRAIGEATGNLGVHWQLKEDSNPVFDKTKNRVYTTYRDGNNLMIQSLNADRTSLNEEEGKVSYVYNKELKRPAFVFEKPKKNAGTQNFVSIVYPYDGQKAPEISIRENKGNDFEKGKLNLTLTINGKQQLVLVP
Take B1: the “trans-infection after heparinase treatment” value in the assay on HIV [3] is listed as “no effect”.

(Values after patent US9580473B2, “Method of inhibiting HIV-1 binding to genital epithelia using V3 loop-specific peptides and GP340-specific antibodies” (priority 2006, dated 2017).)
